Results as given in the NIST ThermoML archive (doi:10.1021/je800110r).
Several values for one entry are separate records, joined by “and”; a condition that tells them apart may be missing. Equal values may be shown once.

Details: 313.14 K, Liquid, Vibrating tube method

CCCCCCCCCC [decane]
Details | mass density
4519 kPa | 718.5 kg/m3
4530 kPa | 718.5 kg/m3
4546 kPa | 718.5 kg/m3
4557 kPa | 718.5 kg/m3
4572 kPa | 718.5 kg/m3
4582 kPa | 718.5 kg/m3
4599 kPa | 718.5 kg/m3
4610 kPa | 718.6 kg/m3
4621 kPa | 718.5 kg/m3
4637 kPa | 718.6 kg/m3
4652 kPa | 718.6 kg/m3
4667 kPa | 718.6 kg/m3
4685 kPa | 718.6 kg/m3
4705 kPa | 718.7 kg/m3
4723 kPa | 718.6 kg/m3
4741 kPa | 718.8 kg/m3
4755 kPa | 718.6 kg/m3
4774 kPa | 718.6 kg/m3
4792 kPa | 718.7 kg/m3
4814 kPa | 718.7 kg/m3
4825 kPa | 718.7 kg/m3
4842 kPa | 718.7 kg/m3
4859 kPa | 718.8 kg/m3
4873 kPa | 718.8 kg/m3
4891 kPa | 718.7 kg/m3
4913 kPa | 718.8 kg/m3
4930 kPa | 718.8 kg/m3
4945 kPa | 718.8 kg/m3
4968 kPa | 718.8 kg/m3
4991 kPa | 718.9 kg/m3
5004 kPa | 718.8 kg/m3
5027 kPa | 718.9 kg/m3
5042 kPa | 718.9 kg/m3
5063 kPa | 718.9 kg/m3
5079 kPa | 719 kg/m3
5092 kPa | 719 kg/m3
5111 kPa | 719 kg/m3
5130 kPa | 719 kg/m3
5149 kPa | 719 kg/m3
5165 kPa | 718.9 kg/m3
5185 kPa | 719 kg/m3
5207 kPa | 719 kg/m3
5230 kPa | 719.2 kg/m3
5251 kPa | 719.2 kg/m3
5270 kPa | 719.1 kg/m3
5300 kPa | 719.2 kg/m3
5315 kPa | 719.3 kg/m3
5316 kPa | 719.2 kg/m3
5318 kPa | 719.2 kg/m3
5320 kPa | 719.2 kg/m3
5321 kPa | 719.1 kg/m3 and 719.3 kg/m3
5322 kPa | 719.2 kg/m3
5338 kPa | 719.1 kg/m3
5355 kPa | 719.1 kg/m3
5373 kPa | 719.2 kg/m3
5385 kPa | 719.3 kg/m3
5399 kPa | 719.3 kg/m3
5414 kPa | 719.1 kg/m3
5430 kPa | 719.2 kg/m3
5444 kPa | 719.2 kg/m3
5461 kPa | 719.2 kg/m3
5478 kPa | 719.2 kg/m3
5498 kPa | 719.3 kg/m3
5515 kPa | 719.3 kg/m3
5537 kPa | 719.4 kg/m3
5552 kPa | 719.4 kg/m3
5568 kPa | 719.4 kg/m3
5586 kPa | 719.4 kg/m3
5603 kPa | 719.4 kg/m3
5622 kPa | 719.4 kg/m3
5636 kPa | 719.4 kg/m3
5655 kPa | 719.4 kg/m3
5671 kPa | 719.5 kg/m3
5686 kPa | 719.4 kg/m3
5705 kPa | 719.4 kg/m3
5721 kPa | 719.5 kg/m3
5739 kPa | 719.5 kg/m3
5753 kPa | 719.5 kg/m3
5771 kPa | 719.5 kg/m3
5788 kPa | 719.6 kg/m3
5803 kPa | 719.5 kg/m3
5819 kPa | 719.6 kg/m3
5838 kPa | 719.5 kg/m3
5852 kPa | 719.6 kg/m3
5871 kPa | 719.7 kg/m3
5889 kPa | 719.6 kg/m3
5906 kPa | 719.7 kg/m3
5927 kPa | 719.6 kg/m3
5946 kPa | 719.7 kg/m3
5963 kPa | 719.6 kg/m3
5982 kPa | 719.7 kg/m3
6002 kPa | 719.7 kg/m3
6019 kPa | 719.8 kg/m3
6042 kPa | 719.8 kg/m3
6064 kPa | 719.8 kg/m3
6084 kPa | 719.8 kg/m3
6100 kPa | 719.8 kg/m3
6120 kPa | 719.9 kg/m3
6140 kPa | 719.8 kg/m3
6162 kPa | 719.8 kg/m3
6180 kPa | 719.9 kg/m3
6198 kPa | 719.9 kg/m3
6202 kPa | 719.8 kg/m3
6204 kPa | 719.9 kg/m3
6213 kPa | 719.9 kg/m3
6230 kPa | 719.9 kg/m3
6246 kPa | 719.9 kg/m3
6262 kPa | 720 kg/m3
6278 kPa | 719.9 kg/m3
6295 kPa | 720 kg/m3
6313 kPa | 720 kg/m3
6332 kPa | 720 kg/m3
6353 kPa | 720.1 kg/m3
6367 kPa | 720 kg/m3
6383 kPa | 720 kg/m3
6398 kPa | 720.1 kg/m3
6420 kPa | 720.1 kg/m3
6438 kPa | 720.1 kg/m3
6453 kPa | 720 kg/m3
6472 kPa | 720.1 kg/m3
6484 kPa | 720 kg/m3
6500 kPa | 720.1 kg/m3
6518 kPa | 720.1 kg/m3
6531 kPa | 720.1 kg/m3
6545 kPa | 720.1 kg/m3
6559 kPa | 720.1 kg/m3
6575 kPa | 720.1 kg/m3
6586 kPa | 720.2 kg/m3
6599 kPa | 720.3 kg/m3
6611 kPa | 720.2 kg/m3
6626 kPa | 720.1 kg/m3
6643 kPa | 720.3 kg/m3
6658 kPa | 720.3 kg/m3
6675 kPa | 720.3 kg/m3
6689 kPa | 720.2 kg/m3
6708 kPa | 720.2 kg/m3
6723 kPa | 720.2 kg/m3
6742 kPa | 720.4 kg/m3
6755 kPa | 720.3 kg/m3
6767 kPa | 720.4 kg/m3
6785 kPa | 720.4 kg/m3
6815 kPa | 720.3 kg/m3
6833 kPa | 720.3 kg/m3
6865 kPa | 720.4 kg/m3
6886 kPa | 720.5 kg/m3
6901 kPa | 720.4 kg/m3
6948 kPa | 720.6 kg/m3
6966 kPa | 720.6 kg/m3
6975 kPa | 720.6 kg/m3
6989 kPa | 720.6 kg/m3
7007 kPa | 720.5 kg/m3
7019 kPa | 720.6 kg/m3
7031 kPa | 720.6 kg/m3
7045 kPa | 720.6 kg/m3
7061 kPa | 720.6 kg/m3
7077 kPa | 720.6 kg/m3
7089 kPa | 720.7 kg/m3
7101 kPa | 720.6 kg/m3
7118 kPa | 720.6 kg/m3
7136 kPa | 720.7 kg/m3
7149 kPa | 720.6 kg/m3
7165 kPa | 720.7 kg/m3
7180 kPa | 720.7 kg/m3
7195 kPa | 720.7 kg/m3
7209 kPa | 720.7 kg/m3
7226 kPa | 720.7 kg/m3
7241 kPa | 720.8 kg/m3
7252 kPa | 720.6 kg/m3
7264 kPa | 720.7 kg/m3
7279 kPa | 720.8 kg/m3
7292 kPa | 720.8 kg/m3
7306 kPa | 720.8 kg/m3
7317 kPa | 720.7 kg/m3
7332 kPa | 720.8 kg/m3
7347 kPa | 720.8 kg/m3
7360 kPa | 720.9 kg/m3
7375 kPa | 720.8 kg/m3
7392 kPa | 720.9 kg/m3
7410 kPa | 720.8 kg/m3
7423 kPa | 720.9 kg/m3
7441 kPa | 720.8 kg/m3
7455 kPa | 720.9 kg/m3
7473 kPa | 720.9 kg/m3
7487 kPa | 721 kg/m3
7507 kPa | 721 kg/m3
7523 kPa | 721 kg/m3
7537 kPa | 720.9 kg/m3
7553 kPa | 720.9 kg/m3
7569 kPa | 721.1 kg/m3
7590 kPa | 721 kg/m3
7605 kPa | 721 kg/m3
7621 kPa | 721.1 kg/m3
7635 kPa | 721.1 kg/m3
7652 kPa | 721.1 kg/m3
7666 kPa | 721.1 kg/m3
7683 kPa | 721.1 kg/m3
7702 kPa | 721 kg/m3
7717 kPa | 721.1 kg/m3
7731 kPa | 721.2 kg/m3
7750 kPa | 721.2 kg/m3
7768 kPa | 721.2 kg/m3
7782 kPa | 721.1 kg/m3
7805 kPa | 721.2 kg/m3
7820 kPa | 721.3 kg/m3
7835 kPa | 721.2 kg/m3
7851 kPa | 721.3 kg/m3
7873 kPa | 721.2 kg/m3
7890 kPa | 721.3 kg/m3
7910 kPa | 721.2 kg/m3
7922 kPa | 721.3 kg/m3
7941 kPa | 721.2 kg/m3
7959 kPa | 721.4 kg/m3
8144 kPa | 721.4 kg/m3
8162 kPa | 721.4 kg/m3
8174 kPa | 721.5 kg/m3
8184 kPa | 721.6 kg/m3
8194 kPa | 721.6 kg/m3
8205 kPa | 721.5 kg/m3
8220 kPa | 721.6 kg/m3
8237 kPa | 721.5 kg/m3
8248 kPa | 721.5 kg/m3
8262 kPa | 721.5 kg/m3
8277 kPa | 721.6 kg/m3
8293 kPa | 721.5 kg/m3
8309 kPa | 721.7 kg/m3
8321 kPa | 721.6 kg/m3
8338 kPa | 721.7 kg/m3
8352 kPa | 721.6 kg/m3
8364 kPa | 721.7 kg/m3
8383 kPa | 721.6 kg/m3
8395 kPa | 721.7 kg/m3
8410 kPa | 721.7 kg/m3
8421 kPa | 721.7 kg/m3
8435 kPa | 721.8 kg/m3
8448 kPa | 721.8 kg/m3
8462 kPa | 721.7 kg/m3
8482 kPa | 721.9 kg/m3
8494 kPa | 721.8 kg/m3
8514 kPa | 721.7 kg/m3
8524 kPa | 721.8 kg/m3
8544 kPa | 721.9 kg/m3
8559 kPa | 721.8 kg/m3
8579 kPa | 721.8 kg/m3
8592 kPa | 721.8 kg/m3
8614 kPa | 721.8 kg/m3
8629 kPa | 721.8 kg/m3
8680 kPa | 721.9 kg/m3
8691 kPa | 722.1 kg/m3
8725 kPa | 722.1 kg/m3
8740 kPa | 722 kg/m3
8754 kPa | 722 kg/m3
8773 kPa | 722 kg/m3
8791 kPa | 722 kg/m3
8807 kPa | 722.1 kg/m3
8821 kPa | 722 kg/m3
8835 kPa | 721.9 kg/m3
8858 kPa | 722.1 kg/m3
8876 kPa | 722.2 kg/m3
8897 kPa | 722.1 kg/m3
8911 kPa | 722.1 kg/m3
8930 kPa | 722.1 kg/m3
8944 kPa | 722 kg/m3
8964 kPa | 722 kg/m3
8980 kPa | 722.1 kg/m3
9004 kPa | 722.1 kg/m3
9023 kPa | 722.2 kg/m3
9038 kPa | 722.2 kg/m3
9053 kPa | 722.2 kg/m3
9075 kPa | 722.3 kg/m3
9092 kPa | 722.2 kg/m3
9106 kPa | 722.2 kg/m3
9121 kPa | 722.3 kg/m3
9138 kPa | 722.3 kg/m3
